Measured values taken from US12492173B2, “Herbicidal substituted N-tetrazolyl aryl carboxamides” (Bayer Aktiengesellschaft, priority 2019, dated 2025).

What was measured:
Type in all cases: in vivo
Abutilon theophrasti = experiment: Pre-emergence herbicidal action, ABUTH; conditions: dosage 320 g/ha, scored visually after 3 weeks vs untreated controls (100% = plants have died)
Method in brief: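 Percent damage, assessed visually after 3 weeks and referenced to untreated controls, reflects a pre-emergence treatment. Spray liquid equated to 600 to 800 l/ha with 0.2% wetting agent, applied to the covering soil over seeds in sandy loam.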

Alopecurus myosuroides = experiment: Post-emergence herbicidal action, ALOMY; set-up: key: % herbicidal action vs untreated; 100 = plants died, 0 = like control
Method in brief: (§1)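 Greenhouse post-emergence test: weeds sown in sandy loam were sprayed once at one leaf, 2 to 3 weeks from sowing, with aqueous WP or EC preparations carrying 0.2% wetting agent. Effect is scored visually after about 3 weeks.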

Avena fatua = experiment: Post-emergence herbicidal action, AVEFA; set-up: key: % herbicidal action vs untreated; 100 = plants died, 0 = like control
Method in brief: as §1

Echinochloa crus-galli = experiment: Post-emergence herbicidal action, ECHCG; set-up: key: % herbicidal action vs untreated; 100 = plants died, 0 = like control
Method in brief: as §1

Pharbitis purpurea = experiment: Post-emergence herbicidal action, PHBPU
Method in brief: as §1

Setaria viridis = experiment: Post-emergence herbicidal action, SETVI; set-up: key: % herbicidal action vs untreated; 100 = plants died, 0 = like control
Method in brief: as §1

[1] = comparative experiment, post-emergence, 5 g of a.i./ha

SMILES	herbicidal activity ABUTH (Abutilon theophrasti) [%]	herbicidal action ALOMY (Alopecurus myosuroides; post-emergence, dosage 80 g/ha) [%]	herbicidal action AVEFA (Avena fatua; post-emergence, dosage 80 g/ha) [%]	herbicidal action ECHCG (Echinochloa crus-galli; post-emergence, dosage 80 g/ha) [%]	herbicidal action PHBPU (Pharbitis purpurea; post-emergence, dosage 80 g/ha) [%]	herbicidal action SETVI (Setaria viridis; post-emergence, dosage 80 g/ha) [%]	Herbicidal action against ALOMY (Alopecurus myosuroides; [1])	Herbicidal action against AVEFA (Avena fatua; [1])	herbicidal action ALOMY (Alopecurus myosuroides; Dosage 80 g/ha)	herbicidal action AVEFA (Avena fatua; Dosage 80 g/ha)	herbicidal action ECHCG (Echinochloa crus-galli; Dosage 80 g/ha)	herbicidal action PHBPU (Pharbitis purpurea; Dosage 80 g/ha)	herbicidal action SETVI (Setaria viridis; Dosage 80 g/ha)
CSCc1c(C(F)(F)F)ccc(C(=O)Nc2nnnn2C)c1Cl [Example 1-296]	100	100	90	100	100	100							
Cn1nnnc1NC(=O)c1ccc(C(F)(F)F)c(CS(C)(=O)=O)c1Cl [Example 1-298]	100	100	100	90	100	100	70	60					
CCS(=O)(=O)Cc1c(C(F)(F)F)ccc(C(=O)Nc2nnnn2C)c1Cl [Example 1-301]	100								80	100	90	100	90
C=CCSCc1c(C(F)(F)F)ccc(C(=O)Nc2nnnn2C)c1Cl [Example 1-308]	100	100	100	100	100	100							
CSCc1c(C(F)(F)F)ccc(C(=O)Nc2nnnn2C)c1Br [Example 1-380]	100	90	100	90	90	90							
Cn1nnnc1NC(=O)c1ccc(C(F)(F)F)c(C[S+](C)[O-])c1Br (centres unmarked) [Example 1-381]	100	80	100	90	100	100							
CCn1nnnc1NC(=O)c1ccc(C(F)F)c(CSC)c1C [Example 2-107]	100								80	80	90	90	90
CCn1nnnc1NC(=O)c1ccc(C(F)(F)F)c(CSC)c1SC [Example 2-161]	100	80	90	90	90	100							
CCn1nnnc1NC(=O)c1ccc(C(F)(F)F)c(CS(C)(=O)=O)c1SC [Example 2-163]	100								90	100	100	90	90
CCn1nnnc1NC(=O)c1ccc(C(F)(F)F)c(CSC)c1Br [Example 2-380]	100	80	100	90	90	100							
CCn1nnnc1NC(=O)c1ccc(C(F)(F)F)c(C[S+](C)[O-])c1Br (centres unmarked) [Example 2-381]	100	80	100	90	100	100							
CCSCc1c(C(F)(F)F)ccc(C(=O)Nc2nnnn2CC)c1Br [Example 2-383]	100	80	100	90	90	100							
CCCn1nnnc1NC(=O)c1ccc(C(F)(F)F)c(CSC)c1Cl [Example 3-296]	100								80	90	100	90	90
CCCn1nnnc1NC(=O)c1ccc(C(F)(F)F)c(C[S+](C)[O-])c1Cl (centres unmarked) [Example 3-297]	100	90	100	80	90	80							
CCCn1nnnc1NC(=O)c1ccc(C(F)(F)F)c(CSCC)c1Cl [Example 3-299]	100								80	80	90	90	90
CCCn1nnnc1NC(=O)c1ccc(C(F)F)c(CSC)c1Cl [Example 3-320]	100								80	90	100	90	100
CCCn1nnnc1NC(=O)c1ccc(C(F)(F)F)c(CSC)c1Br [Example 3-380]	100								80	100	90	90	90
CCCn1nnnc1NC(=O)c1ccc(C(F)(F)F)c(C[S+](C)[O-])c1Br (centres unmarked) [Example 3-381]	100	80	100	90	100	90							
CCCn1nnnc1NC(=O)c1ccc(C(F)(F)F)c(CSCC)c1Br [Example 3-383]	100								80	90	90	90	90
